Consider 13 compounds from PMC6331934, “Study of the Biotransformation of Tongmai Formula by Human Intestinal Flora and Its Intestinal Permeability across the Caco-2 Cell Monolayer” (Molecules, 2015).

A short description of series [1]: Bidirectional transport across the Caco-2 cell monolayer (Papp, efflux ratio, mass balance). Conditions: human; for recovery at 90 min, 50 μM: mass balance, total amount in AP and BL sides, incubation up to 90 min, n = 3. Background: Caco-2 cells form a polarised layer with tight junctions and transporters.
The nature of series [2]: Time course of TMF constituents during anaerobic biotransformation by human intestinal flora. Type of series: in vitro ADME. The following applies: male, human, human intestinal flora (faecal suspension in GAM); incubation by HIF; read-out: Time of maximum concentration. Here is the method: (§1) The general anaerobic medium (GAM) of HIF was prepared as follows: 10.0 g of tryptone, 10.0 g of proteose peptone, 13.5 g of digested serum powder, 5.0 g of yeast extract, 2.2 g of beef extract, 1.2 g of beef liver extract powder, 3.0 g of glucose, 2.5 g of KH2PO4, 3.0 g of NaCl, 5.0 g of soluble starch, 0.3 g of L-cysteine hydrochloride, and 0.3 g of sodium thioglycolate were dissolved in H2O. Adjust the pH of GAM solution to 7.1–7.2 with 1M NaOH aqueous solution and supply the total volume to 1 L. Ten grams of fresh feces obtained from a healthy volunteer, who had not taken any medicine in three months, were immediately homogenized and suspended in GAM (50 mL) solution. The HIF was undertaken according to the previous paper of our laboratory. Preparation of the biotransformation products of TMF by HIF was followed by the method of previous research.
(§2) A biotransformation system consisting of HIF (10 mL) and TMF (10 mg) was anaerobically incubated at 37 °C. All experiments were carried out in sextuplicate at each time point. The biotransformation reaction was stopped at 0.5, 1, 2, 4, 8, 12, 24, 36, 48, 60 h. The biotransformation solution was extracted with n-butanol (each 10 mL) three times. The combined n-butanol layer was evaporated to dryness under a gentle stream of nitrogen. MeOH (400 μL) was used to dissolve the residue which acted as a deproteinization agent. The resultant solution was vortex-mixed for 1 min and centrifuged at 16,000 g for 10 min at 4 °C. The supernatant was collected and filtered through a 0.22 μm filter as the test solution. The blank sample was prepared using TMF-free medium solution with the same processing steps. […] The column temperature was set at 30 °C and detection wavelength was set at 254 nm.

Series [3] concerns human intestinal flora (HIF). The series is described as above. Type of series: in vitro ADME. The following applies: for Reduction of content (fold): after 60 h incubation by HIF; for Increase of content (fold): 60 h incubation by HIF. Here is the method: as §1, §2
For the next series, the system named is Caco-2 cell monolayer. Briefly: Bidirectional transport across the Caco-2 cell monolayer (Papp, efflux ratio, mass balance). The following applies: Caco-2 monolayer; classes after ref 18.
Series [4] concerns RAW 264.7 murine macrophages cells. Details: method as in PMID 22644850. Conditions: RAW 264.7 cells; compared with daidzin; cited from earlier work.
A further series can be described thus: in vitro. Conditions: human.
[5] abbreviates: Caco-2, pH 7.4, Level (order of magnitude) of Papp, Caco-2 monolayer.
Setting [6] is: Caco-2, pH 7.4, Total Recovery (%) AP→BL.
Setting [7] is: Caco-2, pH 7.4, Total Recovery (%) BL→AP.
[8] abbreviates: Caco-2, pH 7.4, Absorption class by Papp, Caco-2 monolayer, classes after ref 18.

`COc1ccc(C2=CC(=O)OC2Cc2ccc(O)cc2)c(OC2OC(CO)C(O)C(O)C2O)c1` (racemic) [Compound 8, (±)-puerol B-2″-O-glucopyranoside]: in series [1] (Caco-2, pH 7.4), the Papp A→B – broadly, the apparent permeability from the apical to the basolateral side of a cell layer – at 90 min, 50 μM is 1.29 ± 0.28 ×10⁻⁶ cm/s; the Papp B→A (commonly the apparent permeability from the basolateral to the apical side of a cell layer) at 90 min, 50 μM was 1.03 ± 0.09 ×10⁻⁶ cm/s; the efflux ratio – broadly, the permeability from basolateral to apical divided by that in the opposite direction, in the common usage – at 1 h, 50 μM was determined as 0.8. The Papp – broadly, the rate of passage across a membrane or cell layer, normalised by area and donor concentration – at 1 h, 50 μM in series [1] (setting [5]) was approximately 1 ×10⁻⁶ cm/s. Moreover, the recovery at 90 min, 50 μM in series [1] (setting [6]) is 77%. Besides, in series [1] (setting [7]), the recovery at 90 min, 50 μM was determined as 91.4%.

Regarding `O=c1c(-c2ccc(O)c(O)c2)coc2c(C3OC(CO)C(O)C(O)C3O)c(O)ccc12` (stereo not drawn) [Compound 1, 3′-hydroxypuerarin], in series [2], the Tmax is 2 h. Also, in series [1] (Caco-2, pH 7.4), the apparent permeability from apical to basolateral (Papp A→B) at 90 min, 50 μM is 0.45 ± 0.02 ×10⁻⁶ cm/s; the Papp B→A at 90 min, 50 μM amounted to 0.29 ± 0.01 ×10⁻⁶ cm/s; the efflux ratio at 1 h, 50 μM worked out at 0.64. Further, the recovery at 90 min, 50 μM in series [1] (setting [6]) was 98.1%. Moreover, the recovery at 90 min, 50 μM in series [1] (setting [7]) turned out to be 94.4%.

Compound `O=Cc1ccc(O)c(O)c1` [Compound 2, protocatechuic aldehyde] came in with a Content remaining in series [3] (at 60 h incubation by HIF) of approximately 50%.

With `O=c1c(-c2ccc(O)c(O)c2)coc2c([C@@H]3O[C@H](CO[C@@H]4OC[C@](O)(CO)[C@H]4O)[C@@H](O)[C@H](O)[C@H]3O)c(O)ccc12` [Compound 3, 3′-hydroxymirificin], in series [3] (early stage (4 h) of incubation by HIF), the Content remaining was approximately 25%. Also, in series [1] (Caco-2, pH 7.4), the apparent permeability from apical to basolateral (Papp A→B) at 90 min, 50 μM was 0.97 ± 0.01 ×10⁻⁶ cm/s; the apparent permeability from basolateral to apical (Papp B→A) at 90 min, 50 μM came to 0.53 ± 0.01 ×10⁻⁶ cm/s; the efflux ratio at 1 h, 50 μM turned out to be 0.55. For the same compound, in series [1] (setting [6]), the recovery at 90 min, 50 μM is 101%. Also, the recovery at 90 min, 50 μM in series [1] (setting [7]) was 98.3%.

With `O=c1c(-c2ccc(O)cc2)coc2c([C@@H]3O[C@H](CO)[C@@H](O)[C@H](O)[C@H]3O)c(O)ccc12` [Compound 4, puerarin], in series [1] (Caco-2, pH 7.4), the apparent permeability from apical to basolateral (Papp A→B) at 90 min, 50 μM came out at 0.68 ± 0.02 ×10⁻⁶ cm/s; the Papp B→A at 90 min, 50 μM came to 0.41 ± 0.01 ×10⁻⁶ cm/s; the efflux ratio at 1 h, 50 μM came out at 0.6. Besides, in series [1] (setting [5]), the apparent permeability (Papp) at 1 h, 50 μM is approximately 0.1 ×10⁻⁶ cm/s. In series [1] (setting [6]), the recovery at 90 min, 50 μM was 96.6%. The recovery at 90 min, 50 μM in series [1] (setting [7]) was 95.7%. In the series on Caco-2 cell monolayer, the “Absorption class by Papp” value is given as “poorly absorbed”.

For the compound `COc1cc(-c2coc3c(C4OC(CO)C(O)C(O)C4O)c(O)ccc3c2=O)ccc1O` (stereo not drawn) [Compound 5, 3′-methoxypuerarin], the Content remaining in series [3] (at 60 h incubation by HIF) was approximately 50%. In series [1] (Caco-2, pH 7.4), the Papp A→B at 90 min, 50 μM came out at 0.75 ± 0.09 ×10⁻⁶ cm/s; the apparent permeability from basolateral to apical (Papp B→A) at 90 min, 50 μM came to 0.47 ± 0.03 ×10⁻⁶ cm/s; the efflux ratio at 1 h, 50 μM was found to be 0.63. Further, the recovery at 90 min, 50 μM in series [1] (setting [6]) turned out to be 94.6%. For the same compound, in series [1] (setting [7]), the recovery at 90 min, 50 μM was determined as 86.2%.

On to `O=c1c(-c2ccc(O)cc2)coc2c([C@@H]3O[C@H](CO[C@@H]4OC[C@](O)(CO)[C@H]4O)[C@@H](O)[C@H](O)[C@H]3O)c(O)ccc12` [Compound 6, mirificin], for which, in series [3], the “Reduction of content (fold)” value is on record as 10 fold. In addition, in series [1] (Caco-2, pH 7.4), the Papp A→B at 90 min, 50 μM was determined as 0.29 ± 0.01 ×10⁻⁶ cm/s; the Papp B→A at 90 min, 50 μM was 0.23 ± 0.01 ×10⁻⁶ cm/s; the efflux ratio at 1 h, 50 μM was found to be 0.79. For the same compound, in series [1] (setting [6]), the recovery at 90 min, 50 μM was determined as 99.4%. Besides, in series [1] (setting [7]), the recovery at 90 min, 50 μM amounted to 98.5%.

As for `O=c1c(-c2ccc(O)cc2)coc2cc(O[C@@H]3O[C@H](CO)[C@@H](O)[C@H](O)[C@H]3O)ccc12` [Compound 7, daidzin], the “Reduction of content (fold)” value in series [3] is recorded as 10 fold. Further, in series [3] (during the 60 h incubation by HIF), the “Conversion by HIF” value is on record as “almost completely converted into daidzein (10)”. Further, in series [1] (Caco-2, pH 7.4), the apparent permeability from apical to basolateral (Papp A→B) at 90 min, 50 μM was found to be 0.4 ± 0.01 ×10⁻⁶ cm/s; the Papp B→A at 90 min, 50 μM turned out to be 0.37 ± 0.01 ×10⁻⁶ cm/s; the Papp at 1 h, 50 μM was approximately 0.1 ×10⁻⁶ cm/s; the efflux ratio at 1 h, 50 μM turned out to be 0.92. Moreover, the recovery at 90 min, 50 μM in series [1] (setting [6]) was determined as 99.8%. Further, the recovery at 90 min, 50 μM in series [1] (setting [7]) came to 98.5%. In addition, in the series with Caco-2 cell monolayer, the “Absorption class by Papp” value is listed as “poorly absorbed”.

Consider `O=C1C=C(c2ccc(O)cc2O)[C@@H](Cc2ccc(O)cc2)O1` [Compound 9, puerol A], for which the “Increase of content (fold)” value in series [3] is “more than 3 fold”. Moreover, in series [1] (Caco-2, pH 7.4), the Papp A→B at 90 min, 50 μM was 6.27 ± 0.81 ×10⁻⁶ cm/s; the basolateral-to-apical permeability (Papp B→A) at 90 min, 50 μM was 8.3 ± 1.6 ×10⁻⁶ cm/s; the efflux ratio at 1 h, 50 μM worked out at 1.32. The Papp at 1 h, 50 μM in series [1] (setting [5]) is approximately 1 ×10⁻⁶ cm/s. Further, the recovery at 90 min, 50 μM in series [1] (setting [6]) amounted to 86%. In addition, the recovery at 90 min, 50 μM in series [1] (setting [7]) turned out to be 90.9%.

Consider `O=c1c(-c2ccc(O)cc2)coc2cc(O)ccc12` [Compound 10, daidzein], for which the “Inhibitory effect on lipopolysaccharide-induced nitric oxide production” value in series [4] was “stronger than that of daidzin”. This compound also showed an apical-to-basolateral permeability (Papp A→B) at 90 min, 50 μM in “in vitro” (Caco-2, pH 7.4) of 25.5 ± 0.34 ×10⁻⁶ cm/s. Also, the Papp B→A at 90 min, 50 μM in the series “in vitro” (Caco-2, pH 7.4) amounted to 26.22 ± 0.01 ×10⁻⁶ cm/s. Besides, the Papp at 1 h, 50 μM in the series “in vitro” (Caco-2, pH 7.4, Absorption class by Papp) is more than 10 ×10⁻⁶ cm/s; in the series “in vitro” (Caco-2, pH 7.4, Level (order of magnitude) of Papp), approximately 10 ×10⁻⁶ cm/s. The results for the recovery at 90 min, 50 μM in the series “in vitro” (setting [6]) and in the series “in vitro” (setting [7]) were 93.4% and 100%, respectively.

On to `O=c1c(-c2ccc(O)cc2)coc2cc(O)cc(O)c12` [Compound 11, genistein], for which, in series [3], the “Increase of content (fold)” value was “more than 3 fold”. In addition, in series [1] (Caco-2, pH 7.4), the apparent permeability from apical to basolateral (Papp A→B) at 90 min, 50 μM was 32.4 ± 3.86 ×10⁻⁶ cm/s; the Papp B→A at 90 min, 50 μM came to 37.7 ± 1.93 ×10⁻⁶ cm/s; the efflux ratio at 1 h, 50 μM is 1.16. Besides, the apparent permeability (Papp) at 1 h, 50 μM in series [1] (setting [8]) is more than 10 ×10⁻⁶ cm/s. For the same compound, the apparent permeability (Papp) at 1 h, 50 μM in series [1] (setting [5]) was approximately 10 ×10⁻⁶ cm/s. The recovery at 90 min, 50 μM in series [1] (setting [6]) turned out to be 86.7%. For the same compound, the recovery at 90 min, 50 μM in series [1] (setting [7]) amounted to 75.7%.

Regarding `COc1ccc(-c2coc3cc(O)ccc3c2=O)cc1` [Compound 12, formononetin], the “Increase of content (fold)” value in series [3] was “more than 3 fold”. Besides, the Papp A→B at 90 min, 50 μM in series [1] (Caco-2, pH 7.4) was 30.64 ± 0.07 ×10⁻⁶ cm/s. The apparent permeability from basolateral to apical (Papp B→A) at 90 min, 50 μM in series [1] (Caco-2, pH 7.4) worked out at 26.5 ± 1.1 ×10⁻⁶ cm/s. The efflux ratio at 1 h, 50 μM in series [1] (Caco-2, pH 7.4) stood at 0.87. For the same compound, the apparent permeability (Papp) at 1 h, 50 μM in series [1] (setting [8]) was more than 10 ×10⁻⁶ cm/s; in series [1] (setting [5]), approximately 10 ×10⁻⁶ cm/s. In addition, the recovery at 90 min, 50 μM in series [1] (setting [6]) turned out to be 102%; in series [1] (setting [7]) it was 98%.

With `CC(C)NCC(O)COc1cccc2ccccc12` (stereo not drawn) [propranolol, reference compound], the apical-to-basolateral permeability (Papp A→B) at 1 h in series [1] (Caco-2, pH 7.4) was determined as 33.7 ×10⁻⁶ cm/s.
